Assay results as given in patent US8697694B2, “Substituted pyridine and pyrimidine derivatives and their use in treating viral infections” (priority 2008, dated 2014).

Test system: HCV replicon cells
Assay: Cell-based HCV replicon assay (replicon RNA level by real time PCR, Taqman)
Settings: HCV replicon cells, harvested day 3, replicon RNA by real time PCR; reported as range class; read-out: EC90 (μM) range
Description: Assays Cell-Based HCV Replicon Assay
To measure cell-based anti-HCV activity of the compounds of the present invention, replicon cells were seeded at 5000 cells/well in 96-well collagen I-coated Nunc plates in the presence of the compound of the invention. Various concentrations of a compound of the invention, typically in 10 serial 2-fold dilutions, were added to the assay mixture, the starting concentration of the compound ranging from 25 μM to 1 μM. The final concentration of DMSO was 0.5%, fetal bovine serum was 10%, in the assay media. Cells were harvested on day 3 by the addition of 1× cell lysis buffer (Ambion cat #8721). The replicon RNA level was measured using real time PCR (Taqman assay). The amplicon was located in 5B. The PCR primers were: 5B.2F, ATGGACAGGCGCCCTGA (SEQ. ID NO. 1); 5B.2R, […] (SEQ. ID NO. 2); the probe sequence was FAM-labeled CACGCCATGCGCTGCGG (SEQ. ID NO. 3). GAPDH RNA was used as endogenous control and was amplified in the same reaction as NS5B (multiplex PCR) using primers and VIC-labeled probe recommended by the manufacturer (PE Applied Biosystem). The real-time RT-PCR reactions were run on ABI PRISM 7900HT Sequence Detection System using the following program: 48′C for 30 min, 95° C. for 10 min, 40 cycles of 95° C. for 15 sec, 60° C. for 1 min. The ΔCT values (CT5B-CTGAPDH) were plotted against the concentration of test compound and fitted to the sigmoid dose-response model using GraphPad PRISM software. EC50 was defined as the concentration of inhibitor necessary to achieve ΔCT=1 over the projected baseline; EC90 the concentration necessary to achieve ΔCT=3.2 over the baseline. Alternatively, to quantitate the absolute amount of replicon RNA, a standard curve was established by including serially diluted T7 transcripts of replicon RNA in the Taqman assay. All Taqman reagents were from PE Applied Biosystems. Such an assay procedure was described in detail in e.g. Malcolm et al., Antimicrobial Agents and Chemotherapy 50: 1013-1020 (2006).
HCV Replicon assay data for compounds of the invention that were tested was obtained using the above method. Calculated EC90 values are reported for each compound in Table I as a falling within the following ranges: […]

Question: How did the EC90 turn out when `COc1cc2cc(-c3c(Cl)nc(N(C)C)nc3N[C@@H]3C[C@H](CO)[C@@H](O)[C@H]3O)oc2c(C)n1` [Example 12] was run?
Answer: 0.5 to 5 µM

Question: With `COc1cc2cc(-c3c(Cl)nc(N(C)C)nc3N[C@@H]3C[C@H](CO)[C@@H](O)[C@H]3O)oc2c(C)n1` [Example 13] as the compound, how does the EC90 read?
Answer: > 5 µM

Same assay, conditions: HCV replicon cells, replicon RNA level by real time PCR, harvested day 3; read-out: EC90 (μM) range

Question: With `Cc1nc(N[C@H](C)c2ccc(OC(F)(F)F)cc2)nc(N[C@@H]2C[C@H](C(C)O)[C@@H](O)[C@H]2O)c1-c1nc2ccccc2s1` (single isomer, unassigned) [Example 1646] as the compound, how does the EC90 read?
Answer: 0.5 to 5 µM

Question: For `Cc1nc(NCC2CC2)nc(N[C@@H]2C[C@H](C(C)O)[C@@H](O)[C@H]2O)c1-c1nc2ccccc2s1` (single isomer, unassigned) [Example 1647], which EC90 is on record?
Answer: 0.5 to 5 µM

Question: For `Cc1nc(NCC(F)(F)F)nc(N[C@@H]2C[C@H](C(C)O)[C@@H](O)[C@H]2O)c1-c1nc2ccccc2s1` (single isomer, unassigned) [Example 1648], which EC90 is on record?
Answer: 0.5 to 5 µM

Same assay, conditions: Hepatitis C virus, 72 h, HCV replicon cells, harvested day 3, replicon RNA by real time PCR; given as number; read-out: EC90 (μM) range

Question: For `CCOc1cc2cc(-c3c(C)nc(NCc4nccs4)nc3N[C@@H]3C[C@H](CO)[C@@H](O)[C@H]3O)oc2c(C)n1` [Example 24], which EC90 is on record?
Answer: 0.02 µM

Question: How did the EC90 turn out when `COCCNc1nc(C)c(-c2cc3cc(OC)ncc3o2)c(N[C@@H]2C[C@H](CO)[C@@H](O)[C@H]2O)n1` [Example 25] was run?
Answer: 0.8 µM

Question: With `CCOc1cc2cc(-c3c(C)nc(NC(C)(C)CC)nc3N[C@@H]3C[C@H](CO)[C@@H](O)[C@H]3O)oc2c(C)n1` [Example 26] as the compound, how does the EC90 read?
Answer: 0.5 µM

Question: `CCOc1cc2cc(-c3c(C)nc(NCC(C)(C)C)nc3N[C@@H]3C[C@H](CO)[C@@H](O)[C@H]3O)oc2c(C)n1` [Example 27] was tested. Which EC90 did it give?
Answer: 0.35 µM

Question: With `CCOc1cc2cc(-c3c(C)nc(NC)nc3N[C@@H]3C[C@H](CO)[C@@H](O)[C@H]3O)oc2c(C)n1` [Example 28] as the compound, how does the EC90 read?
Answer: 0.45 µM

Question: With `CCOc1cc2cc(-c3c(C)nc(NCC(F)(F)F)nc3N[C@@H]3C[C@H](CO)[C@@H](O)[C@H]3O)oc2c(C)n1` [Example 29] as the compound, how does the EC90 read?
Answer: 0.1 µM

Question: For `CCOc1cc2cc(-c3c(C)nc(NCC4CC4)nc3N[C@@H]3C[C@H](CO)[C@@H](O)[C@H]3O)oc2c(C)n1` [Example 30], which EC90 is on record?
Answer: 0.14 µM

Question: How did the EC90 turn out when `CCOc1cc2cc(-c3c(C)nc(NC(C)C)nc3N[C@@H]3C[C@H](CO)[C@@H](O)[C@H]3O)oc2c(C)n1` [Example 32] was run?
Answer: 0.95 µM

Question: Which EC90 does the source give for `CCCOc1cc2cc(-c3c(C)nc(NCC(F)(F)F)nc3N[C@@H]3C[C@H](CO)[C@@H](O)[C@H]3O)oc2c(C)n1` [Example 34] here?
Answer: 0.1 µM

Question: With `CCCOc1cc2cc(-c3c(C)nc(NCCOC)nc3N[C@@H]3C[C@H](CO)[C@@H](O)[C@H]3O)oc2c(C)n1` [Example 35] as the compound, how does the EC90 read?
Answer: 0.1 µM

Question: Which EC90 does the source give for `CCOc1cc2cc(-c3c(C)nc(NCc4cc(OC)cc(OC)c4)nc3N[C@@H]3C[C@H](CO)[C@@H](O)[C@H]3O)oc2c(C)n1` [Example 36] here?
Answer: 0.01 µM

Question: With `COCCNc1nc(C)c(-c2cc3cc(OC(C)C)nc(C)c3o2)c(N[C@@H]2C[C@H](CO)[C@@H](O)[C@H]2O)n1` [Example 37] as the compound, how does the EC90 read?
Answer: 0.3 µM

Question: For `CCCOc1cc2cc(-c3c(C)nc(NCC4CC4)nc3N[C@@H]3C[C@H](CO)[C@@H](O)[C@H]3O)oc2c(C)n1` [Example 38], which EC90 is on record?
Answer: 0.25 µM

Question: How did the EC90 turn out when `Cc1nc(NCC2CC2)nc(N[C@@H]2C[C@H](CO)[C@@H](O)[C@H]2O)c1-c1cc2cc(OC(C)C)nc(C)c2o1` [Example 39] was run?
Answer: 0.1 µM

Question: How did the EC90 turn out when `CCOc1cc2cc(-c3c(C)nc(N[C@H](C)c4ccc(C)cc4)nc3N[C@@H]3C[C@H](CO)[C@@H](O)[C@H]3O)oc2c(C)n1` [Example 40] was run?
Answer: 0.15 µM

Question: With `CCOc1cc2cc(-c3c(C)nc(N[C@H](C)C4CC4)nc3N[C@@H]3C[C@H](CO)[C@@H](O)[C@H]3O)oc2c(C)n1` [Example 41] as the compound, how does the EC90 read?
Answer: 0.2 µM

Question: How did the EC90 turn out when `Cc1nc(NCC2CC2)nc(N[C@@H]2C[C@H](CO)[C@@H](O)[C@H]2O)c1-c1cc2cc(OCC3CC3)nc(C)c2o1` [Example 42] was run?
Answer: 0.3 µM

Same assay, conditions: Hepatitis C virus, 72 h, HCV replicon cells, harvested day 3, replicon RNA by real time PCR; reported as range class; read-out: EC90 (μM) range

Question: `Nc1nc(Cl)c(-c2ccccc2)c(N[C@@H]2C[C@H](CO)[C@@H](O)[C@H]2O)n1` [Example 5] was tested. Which EC90 did it give?
Answer: > 5 µM

Question: With `Nc1nc(Cl)c(-c2cc3cnccc3o2)c(N[C@@H]2C[C@H](CO)[C@@H](O)[C@H]2O)n1` [Example 8] as the compound, how does the EC90 read?
Answer: 0.5 to 5 µM

Question: How did the EC90 turn out when `Nc1nc(Cl)c(-c2cc3ccncc3o2)c(N[C@@H]2C[C@H](CO)[C@@H](O)[C@H]2O)n1` [Example 9] was run?
Answer: < 0.5 µM

Question: For `COc1cc2cc(-c3c(Cl)nc(N)nc3N[C@@H]3C[C@H](COC(=O)C(F)(F)F)[C@@H](O)[C@H]3O)oc2cn1` [Example 10], which EC90 is on record?
Answer: < 0.5 µM

Question: Which EC90 does the source give for `COc1cc2cc(-c3c(Cl)nc(N)nc3N[C@@H]3C[C@H](CO)[C@@H](O)[C@H]3O)oc2cn1` [Example 11] here?
Answer: < 0.5 µM

Question: For `COc1cc2cc(-c3c(Cl)nc(N)nc3N[C@@H]3C[C@H](CO)[C@@H](O)[C@H]3O)oc2c(C)n1` [Example 14], which EC90 is on record?
Answer: < 0.5 µM

Question: How did the EC90 turn out when `CNc1nc(Cl)c(-c2cc3cc(OC)nc(C)c3o2)c(N[C@@H]2C[C@H](CO)[C@@H](O)[C@H]2O)n1` [Example 15] was run?
Answer: < 0.5 µM

Question: `Cc1ccc2oc(-c3c(Cl)nc(N)nc3N[C@@H]3C[C@H](CO)[C@@H](O)[C@H]3O)cc2n1` [Example 16] was tested. Which EC90 did it give?
Answer: 0.5 to 5 µM

Question: `CNc1nc(C)c(-c2cc3cc(OC)nc(C)c3o2)c(N[C@@H]2C[C@H](CO)[C@@H](O)[C@H]2O)n1` [Example 17] was tested. Which EC90 did it give?
Answer: < 0.5 µM

Question: For `COCCNc1nc(Cl)c(-c2cc3cc(OC)nc(C)c3o2)c(N[C@@H]2C[C@H](CO)[C@@H](O)[C@H]2O)n1` [Example 18], which EC90 is on record?
Answer: < 0.5 µM

Question: `CCOc1cc2cc(-c3c(Cl)nc(NCC(F)(F)F)nc3N[C@@H]3C[C@H](CO)[C@@H](O)[C@H]3O)oc2c(C)n1` [Example 20] was tested. Which EC90 did it give?
Answer: < 0.5 µM

Question: Which EC90 does the source give for `CCOc1cc2cc(-c3c(Cl)nc(NCCOC)nc3N[C@@H]3C[C@H](CO)[C@@H](O)[C@H]3O)oc2c(C)n1` [Example 21] here?
Answer: < 0.5 µM

Question: `COc1cc2cc(-c3c(Cl)nc(NCC(F)(F)F)nc3N[C@@H]3C[C@H](CO)[C@@H](O)[C@H]3O)oc2cn1` [Example 22] was tested. Which EC90 did it give?
Answer: < 0.5 µM

Question: How did the EC90 turn out when `CCOc1cc2cc(-c3c(C)nc(NCCOC)nc3N[C@@H]3C[C@H](CO)[C@@H](O)[C@H]3O)oc2c(C)n1` [Example 31] was run?
Answer: < 0.5 µM

Question: Which EC90 does the source give for `CCOc1cc2cc(-c3c(C)nc(Nc4ccccc4)nc3N[C@@H]3C[C@H](CO)[C@@H](O)[C@H]3O)oc2c(C)n1` [Example 33] here?
Answer: > 5 µM

Question: Which EC90 does the source give for `Cc1nc(NCC2CC2)nc(N[C@@H]2C[C@H](CO)[C@@H](O)[C@H]2O)c1-c1cc2cc(-c3cccs3)nc(C)c2o1` [Example 43] here?
Answer: > 5 µM

Same assay, conditions: Hepatitis C virus, 72 h, HCV replicon cells, harvested on day 3, replicon RNA by real time PCR; calculated EC90 reported as range class; read-out: EC90 (μM) range

Question: With `Cc1nc(NCc2cccs2)nc(N[C@@H]2CCC[C@H]2O)c1-c1nc2ccccc2s1` (racemic) [Example 333] as the compound, how does the EC90 read?
Answer: < 0.5 µM

Question: How did the EC90 turn out when `Cc1nc(NCc2cccs2)nc(N[C@@H]2CCCC2=O)c1-c1nc2ccccc2s1` (racemic) [Example 338] was run?
Answer: < 0.5 µM

Same assay, conditions: Hepatitis C virus, 72 h, HCV replicon cells, replicon RNA level by real time PCR (Taqman), harvested on day 3; calculated EC90 reported as range class; read-out: EC90 (μM) range

Question: Which EC90 does the source give for `CCNc1nc(C)c(-c2nc3ccccc3s2)c(N[C@@H]2CC(C(C)(F)F)[C@@H](O)[C@H]2O)n1` (single isomer, unassigned) [Example 1074] here?
Answer: 0.5 to 5 µM

Same assay, conditions: Hepatitis C virus, 72 h, HCV replicon cells, replicon RNA level by real time PCR, harvested day 3; read-out: EC90 (μM) range

Question: Which EC90 does the source give for `Cc1nc(NCC(F)(F)F)nc(N[C@@H]2C[C@H](C(C)O)[C@@H](O)[C@H]2O)c1-c1nc2ccccc2s1` (single isomer, unassigned) [Example 1643] here?
Answer: < 0.5 µM

Question: `Cc1nc(NCC2CC2)nc(N[C@@H]2C[C@H](C(C)O)[C@@H](O)[C@H]2O)c1-c1nc2ccccc2s1` (single isomer, unassigned) [Example 1644] was tested. Which EC90 did it give?
Answer: < 0.5 µM

Question: Which EC90 does the source give for `Cc1nc(N[C@H](C)c2ccc(OC(F)(F)F)cc2)nc(N[C@@H]2C[C@H](C(C)O)[C@@H](O)[C@H]2O)c1-c1nc2ccccc2s1` (single isomer, unassigned) [Example 1645] here?
Answer: 0.5 to 5 µM
